Laboratory results: patent publication US7772241B2, “Variolin derivatives and their use as antitumor agents” (Pharma Mar S.A., priority 2001, dated 2010)
Like-named read-outs stand apart in the source and are kept apart here.

How the values were obtained:
[1] = test system: IGROV-ET; experiment: Inhibition of cells growth by colorimetric (SRB) assay, IGROV-ET; settings: for GI50 / CC50: Homo sapiens, 48 h
Method in brief: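 Human tumour cells in RPMI 1640 with 10% FBS were seeded at 5×10^3 cells/well, allowed to attach for 18 h, then exposed to samples at 10 to 10^−8 μg/ml for 48 h. Growth was measured by SRB staining after TCA fixation, with absorbance read at 490 nm in triplicate wells.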

[2] = Inhibition of cells growth by colorimetric (SRB) assay, HMEC1; settings: human, HMEC1 cells, LC50 H-MEC-1, SRB assay, 48 hours exposure
[3] = test system: HMEC1; experiment: as above

CSc1nccc(-c2c3cccnc3n3c(N(C(C)=O)C(C)=O)nccc23)n1 [Compound 26] showed a GI50 ([1]; read-out: GI50 IGROV-ET, SRB assay, 48 hours exposure) of 1.7 µM, a GI50 ([1]; read-out: IGROV-ET GI50, SRB assay, 48 hours exposure) of 0.917 µM and a CC50 ([1]; read-out: IGROV-ET LC50, SRB assay, 48 hours exposure) of 11.4 µM. The CC50 ([1]; read-out: LC50 IGROV-ET, SRB assay, 48 hours exposure) was 25.5 µM, the “IGROV-ET TGI” value ([1]; SRB assay, 48 hours exposure) was 1.83E−06 and the “TGI IGROV-ET” value ([1]; SRB assay, 48 hours exposure) was 7.50E−06. For the same compound, the CC50 at 48 h [2] was 8.28 µM, the GI50 ([3]; Homo sapiens, HMEC-1, 48 h, read-out: GI50 H-MEC-1, SRB assay, 48 hours exposure) was 0.446 µM and the “TGI H-MEC-1” value ([3]; SRB assay, 48 hours exposure, in M (unit assumed)) was 1.22E−06.
